The inhibition is the relative decrease from the control value, in per cent.

Molecules are shown by their SMILES. Activity calls are given as the source filed them. No rule for the calls is given here.

This test is described as follows: inhibitors of TNFa-induced E-selectin expression, confirmation, imaging, retest plus dose response, cell count (AID 1288).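 Also: 0% = stimulated vehicle wells and 100% = unstimulated vehicle wells.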 The following applies: human endothelial cells, TNFa-induced E-selectin, imaging; at 2 µM; active compounds read high.

For the molecule `O=[N+]([O-])c1ccc(O)c(/C=N/Nc2ccc(Cl)nn2)c1`, the inhibition was 3.18% (inactive).

`Cc1ccc2nc(-c3cccc(NC(=O)c4ccc5c(c4)OCCO5)c3)oc2c1`: the inhibition is 4.99% (inactive).

As for `CC(=O)OC(C(=O)NCc1ccco1)c1cccnc1` (stereo not drawn), the inhibition is 6.49% (inactive).

With `Cc1c(Cl)cnc(NC(=O)COC(=O)c2nn(C)c(=O)c3ccccc23)c1Cl`, the inhibition is 12.5% (inactive).

In the case of `COc1ccc(NC(=O)CN(C)CC(=O)Nc2ccccc2SC)cc1`, the inhibition is -3.18% (inactive).

Turning to `Cc1ccc(Cn2ncc3c(N4CCN(C5CCCC5)CC4)ncnc32)cc1`, the inhibition is 3.96% (inactive).

As for `CC(C)CCNC(=O)c1nnc(Cc2ccc(Cl)cc2)o1`, the inhibition was 4.7% (inactive).

With `Cn1nnnc1SCC(=O)Nc1cccc([N+](=O)[O-])c1`, the inhibition is 2.78% (inactive).

As for `COc1ccc(-n2nc3c(c2NC(=O)c2cc(Br)ccc2Cl)CS(=O)C3)cc1` (stereo not drawn), the inhibition was -1.7% (inactive).

Turning to `Cc1ccc(C)n1-c1cccc(NC(=O)c2ccccc2)c1`, the inhibition was 0.87% (inactive).

For `CCN1c2ccccc2-c2nc3ccccc3n2C1c1cccnc1` (stereo not drawn), the inhibition was 1.05% (inactive).

`O=C1CC(N(Cc2cccs2)C(=O)Nc2ccccc2)C(=O)N1c1ccc(Cl)cc1` (stereo not drawn): the inhibition is -1.04% (inactive).

On to `CCOC(=O)c1c(NC(=O)COC)sc2c1CCCC2`, for which the inhibition was 17.5% (inactive).

Take `CN(C)c1ccc(NC(=O)COC(=O)Cn2nnc3ccccc32)cc1`: the inhibition is 0.53% (inactive).

Turning to `CC(=O)c1c(C)[nH]c(C(=O)Nc2ccccc2N2CCOCC2)c1C`, the inhibition was 4.19% (inactive).

Consider `Cn1cc(Cl)c(C(=O)NNC(=S)NCc2ccco2)n1`, for which the inhibition is 7.71% (inactive).

For `Nn1c(CN2CCCCC2)nc2ccccc2c1=O`, the inhibition is 12.2% (inactive).

On to `CCCCn1c2nc3ccccc3nc2c2c(=O)n(-c3ccccc3)cnc21`, for which the inhibition was -1.49% (inactive).

As for `CC(C)(CO)NCC(O)Cn1cc(C=O)c2ccccc21` (stereo not drawn), the inhibition was -5.31% (inactive).

Consider `CCOC(=O)C1=C(c2ccccc2)N(C)C(=O)NC1c1ccc(O)c(OC)c1` (stereo not drawn), for which the inhibition is 8.42% (inactive).

With `Cc1ccc(/C=c2\sc3n(c2=O)CN(c2cccc(Br)c2)CN=3)o1`, the inhibition was 3.58% (inactive).

In the case of `CC(=O)Nc1ccccc1Sc1ccc2c3c(cccc13)C(=O)N(c1ccc(C)cc1)C2=O`, the inhibition was -0.84% (inactive).

On to `Cc1cc(NC(=O)CSc2n[nH]c(N)n2)no1`, for which the inhibition is 14.1% (inactive).

On to `Cc1cc(S(=O)(=O)N2CCN(c3ccccc3O)CC2)c(C)s1`, for which the inhibition was 5.21% (inactive).

For `COc1cccc(-c2cnc(NCc3cc(Cl)ccc3O)n2C)c1`, the inhibition was 3.22% (inactive).

For `COCCN(C(=O)CCC(=O)Nc1ccccn1)C(C(=O)NC1CCCC1)c1ccc(OC)cc1` (stereo not drawn), the inhibition is 2.57% (inactive).

On to `CCN(/N=C/c1ccc(Cl)cc1)c1cc(=O)n(C)c(=O)[nH]1`, for which the inhibition was 12.2% (inactive).

As to `O=S1(=O)CCC(NC(=S)N2CCCCCC2)C1` (stereo not drawn), the inhibition is 18.2% (inactive).

For the molecule `COc1ccc2c(c1)C1CC(C)(NC(=O)C1S(=O)(=O)c1ccc(F)cc1)O2` (stereo not drawn), the inhibition is 28.9% (inactive).

With `Cn1c(O)c(C(=N)COc2cccc(Cl)c2)c(=O)n(C)c1=O`, the inhibition is 18.8% (inactive).

In the case of `Cc1cc(C)nc(/N=C2\NC(=O)CC(C(=O)O)N2c2ccc(Cl)cc2Cl)n1` (stereo not drawn), the inhibition was 0.87% (inactive).

Take `COc1ccc(Br)cc1CN(C)CC(=O)Nc1c(Cl)cccc1Cl`: the inhibition was 0.05% (inactive).

`CCCn1c(SCC(=O)N2c3ccccc3Sc3ccccc32)nc2c1c(=O)n(C)c(=O)n2C`: the inhibition was -8.34% (inactive).

`COc1ccc(-n2nnnc2SCc2nc(N)nc(N3CCOCC3)n2)cc1`: the inhibition was 33.7% (inactive).

For the molecule `C=CCN1CCN(C(c2cc(OC)ccc2OC)c2nnnn2CC2CCCO2)CC1` (stereo not drawn), the inhibition is 31.2% (inactive).

For the molecule `COc1cc(C(=O)Nc2ccc3c(c2)C(=O)c2ccccc2C3=O)cc(OC)c1OC`, the inhibition was 12.8% (inactive).

Take `COCCNC(=O)c1ccc(N(C)S(=O)(=O)c2ccc(OC)c(OC)c2)cc1`: the inhibition is 0.94% (inactive).

For `CN1C(=O)S/C(=C\c2ccccc2OCc2ccc(C(=O)O)cc2)C1=O`, the inhibition was 15.9% (inactive).

For `O=C1c2ccccc2C(Nc2ccc(S(=O)(=O)N3CCCCCC3)cc2)N1Cc1ccco1` (stereo not drawn), the inhibition was 1.55% (inactive).

For the molecule `Cc1ccc(CNc2ccc(S(=O)(=O)N3CCOCC3)cc2[N+](=O)[O-])cc1`, the inhibition was 0.77% (inactive).

As for `CCn1c(SCC(=O)Nc2ccccc2)nnc1C1CCCCC1`, the inhibition is 2.46% (inactive).

For the molecule `CS(=O)(=O)C1=NSC2=NC(=O)/C(=C\c3cccn3-c3ccc(Cl)cc3)C(=N)N21`, the inhibition is 17.3% (inactive).

Turning to `Cc1cc(C)c2cc(CN(Cc3ccc4c(c3)OCO4)Cc3nnnn3Cc3ccco3)c(=O)[nH]c2c1`, the inhibition was -1.09% (inactive).

For `O=C(Oc1nsnc1N1CCOCC1)N1CCOCC1`, the inhibition is 2.57% (inactive).

Turning to `O=C(/C=C/c1ccccc1)N1CCC(Cc2ccccc2)CC1`, the inhibition was 9.46% (inactive).

As to `CC(C)=C1SC(N2CCN(c3ccc(C)cc3)CC2)=NC1=O`, the inhibition is -3.72% (inactive).

With `COc1ccc(NC(=O)c2ccc(CNc3c(NC4CCCCC4)c(=O)c3=O)cc2)cc1OC`, the inhibition was 3.32% (inactive).

Consider `O=C(NCCN1C(=O)CSC1=O)c1ccccc1`, for which the inhibition was 1.16% (inactive).

With `CC(C)n1c(SCC(=O)Nc2nc3c(s2)CCCC3)nc2c1c(=O)n(C)c(=O)n2C`, the inhibition was 3.36% (inactive).

Consider `CCCOC(=O)c1ccc(Cl)c(NC(=O)c2ccc(-c3ccccc3)cc2)c1`, for which the inhibition is 1.66% (inactive).

As to `Clc1ccc(Nc2nc3cccnc3s2)cc1`, the inhibition was 7.79% (inactive).

For `CCOc1cc(C(=O)NCc2nnc(SCC(=O)OC)n2C)cc(OCC)c1OCC`, the inhibition is -6.58% (inactive).

For `CCOc1ccc(NCc2nc3ccccc3n2CCOc2ccccc2)cc1`, the inhibition is 11.6% (inactive).

Take `CCCOc1ccc(NC(=O)C(=O)NCCCn2ccnc2)cc1`: the inhibition was 42.5% (inactive).

On to `COCCCNC(=S)N1CCN(c2ccc([N+](=O)[O-])cc2)CC1`, for which the inhibition was 20% (inactive).

In the case of `COC(=O)Cn1cnc2c1c(=O)n(C)c(=O)n2C`, the inhibition is 6.02% (inactive).

In the case of `Cn1cc([N+](=O)[O-])c(C(=O)Nc2ccc(Br)cn2)n1`, the inhibition was 7.96% (inactive).

On to `Cc1ccc(N)cc1S(=O)(=O)N(C)C`, for which the inhibition was 7.3% (inactive).

Turning to `CC(=O)N[C@@H](Cc1c[nH]c2ccccc12)C(=O)OCC(=O)Nc1ccc(S(=O)(=O)N(C)C)cc1`, the inhibition was 7.84% (inactive).

In the case of `O=C(COc1ccc([N+](=O)[O-])cc1Cl)NCCc1ccccc1`, the inhibition was -2.48% (inactive).

Turning to `Cc1cc(C(=O)Nc2nc3c(s2)CCCC3)no1`, the inhibition is 6.49% (inactive).

`COc1ccc(OC)c2sc(NC(=O)CCS(=O)(=O)c3ccccc3)nc12`: the inhibition was 5.59% (inactive).

Regarding `COc1ccc(C(=O)C(CO)Oc2ccccc2OC)cc1OC` (stereo not drawn), the inhibition is 1.41% (inactive).

Take `CCC(C(=O)N1CCc2cc(OC)c(OC)cc2C1)c1ccccc1` (stereo not drawn): the inhibition was -0.78% (inactive).

As for `COc1cccc(-n2c(SC3CCOC3=O)nc3ccccc3c2=O)c1` (stereo not drawn), the inhibition is 27.9% (inactive).

On to `Nc1cccc(-n2nncc2-c2ccc(Cl)cc2)c1`, for which the inhibition was 18.2% (inactive).

On to `CCn1c(SCC(=O)NCc2ccco2)nnc1-c1ccc(N)cc1`, for which the inhibition was 10.3% (inactive).

For the molecule `Cc1ccc(CNCC(O)(c2ccccc2)c2ccc(Cl)cc2)cc1` (stereo not drawn), the inhibition is 5.94% (inactive).

On to `CC(=O)N[C@@H](Cc1c[nH]c2ccccc12)C(=O)OCC(=O)Nc1ccc(Cl)c(S(=O)(=O)N(C)C)c1`, for which the inhibition is 7.98% (inactive).

For the molecule `COc1ccc(C2CC(O)(C(C)(C)O)NO2)cc1` (stereo not drawn), the inhibition is -4.94% (inactive).

As for `O=C(CSc1ncnc2nc[nH]c12)Nc1ccccc1C(F)(F)F`, the inhibition is 30.5% (inactive).

With `CCOC(=O)Cc1csc(NC(=O)COc2ccc(OC)cc2)n1`, the inhibition is 6.28% (inactive).

Regarding `CCOC(=O)c1cc2c(ccn2C)n1CC(=O)N1CCC(Cc2ccccc2)CC1`, the inhibition was 4.26% (inactive).

Take `C=CCn1c(SCC(=O)NC)nc2sc3c(c2c1=O)CCC3`: the inhibition is 4.27% (inactive).

With `CCOC(=O)c1c(NC(C)=O)sc2c(O)cccc12`, the inhibition is 35.6% (inactive).

With `Cc1cc(=O)n2nc(-c3ccccc3)sc2c1C#N`, the inhibition is 1.2% (inactive).

As for `CC(C)C(=O)Nc1cc(=O)[nH]c2ncnn12`, the inhibition was 10.9% (inactive).

With `COC(=O)CSc1nc(N)nc(C)c1Br`, the inhibition is 3.71% (inactive).

With `CC(C)C(c1nnnn1Cc1ccccc1)N1CCC(C(N)=O)CC1` (stereo not drawn), the inhibition is 9.62% (inactive).

As for `CCc1ccc(CC2S/C(=C(\C#N)C(C)=O)NC2=O)cc1` (stereo not drawn), the inhibition was 5.01% (inactive).

Regarding `Cc1ccc2oc(=O)n(CCCOc3ccccc3)c2c1`, the inhibition is 26.2% (inactive).

As for `CC(C)CC1NC(=O)N(CC(=O)N2CCN(S(=O)(=O)c3ccc(Cl)cc3)CC2)C1=O` (stereo not drawn), the inhibition is -2.35% (inactive).

In the case of `CCc1ccc(CN(C)C(=O)c2cc(COc3c(F)cccc3F)on2)cc1`, the inhibition is 13% (inactive).

Regarding `COc1ccc(/C=N/NC(=O)C(C)n2cnc3ccccc3c2=O)cc1OC` (stereo not drawn), the inhibition is -0.71% (inactive).

As for `CCC(CC)C(=O)c1c[nH]c(C(=O)NCCCN2CCOCC2)c1`, the inhibition was 2.64% (inactive).

Regarding `O=C(CO/N=C/c1ccccc1OC(F)F)NCc1cccs1`, the inhibition was 1.25% (inactive).

For `O=C(Cn1cc(C(=O)C(F)(F)F)c2cc(Br)ccc21)N1CCOCC1`, the inhibition is 7.56% (inactive).

On to `Clc1ccc(Nc2ccc(-n3ccnc3)nn2)cc1Cl`, for which the inhibition is 11.7% (inactive).

These data come from PubChem BioAssay AID1288 (Columbia University Molecular Screening Center, 2008).
